# Assay results from patent US10238670B2, “9-aminomethyl minocycline compounds and methods of use thereof in urinary tract infection (UTI) treatment” (Paratek Pharmaceuticals, Inc., priority 2016, dated 2019).
# What was measured:
# Assay in all cases: In vitro MIC, 2010 surveillance isolates
# E. cloacae CeftazS = assay type: cell-based
# MRSA = assay type: cell-based
# K. pneumoniae ESBL− = assay type: cell-based, Klebsiella pneumoniae
# K. pneumoniae ESBL+ = assay type: cell-based, Klebsiella pneumoniae
# Enterobacter spp = assay type: cell-based
# MS CoNS = assay type: cell-based, Coagulase-Negative Staphylococcus
# K. oxytoca = assay type: cell-based
# E. coli ESBL− = assay type: cell-based, Escherichia coli
# MR CoNS = assay type: cell-based, Coagulase-Negative Staphylococcus
# A. baumanii = assay type: cell-based
# Acinetobacter spp = assay type: cell-based
# MSSA = assay type: cell-based
# E. coli ESBL+ = assay type: cell-based, Escherichia coli
# E. cloacae CeftazR = assay type: cell-based
substance,measurement,setting,value
Gentamicin,% R (resistance),"E. cloacae CeftazS; Asia/Pac, Eucast breakpoints",6%
same,MIC90,"E. cloacae CeftazS; Asia/Pac, N=100",≤ 1 µg/mL
same,% R (resistance),"E. cloacae CeftazS; Europe, Eucast breakpoints",1.1%
same,MIC90,"E. cloacae CeftazS; Europe, N=183",≤ 1 µg/mL
same,% R (resistance),"E. cloacae CeftazS; L. Amer, CLSI breakpoints",12.3%
same,MIC90,"E. cloacae CeftazS; L. Amer, N=57",> 8 µg/mL
same,% R (resistance),"E. cloacae CeftazS; N America, CLSI breakpoints",0%
same,MIC90,"E. cloacae CeftazS; N America, N=210",≤ 1 µg/mL
same,% R (resistance),"MRSA; Asia/Pac, Eucast breakpoints",58.6%
same,MIC90,"MRSA; Asia/Pac, N=428",> 8 µg/mL
same,% R (resistance),"MRSA; Europe, Eucast breakpoints",23.1%
same,MIC90,"MRSA; Europe, N=750",> 8 µg/mL
same,% R (resistance),"MRSA; L. Amer, CLSI breakpoints",35.4%
same,MIC90,"MRSA; L. Amer, N=506",> 8 µg/mL
same,% R (resistance),"MRSA; N America, CLSI breakpoints",3.7%
same,MIC90,"MRSA; N America, N=2508",≤ 1 µg/mL
same,% R (resistance),"K. pneumoniae ESBL−; Asia/Pac, Eucast breakpoints",3.7%
same,MIC90,"K. pneumoniae ESBL−; Asia/Pac, N=189",≤ 1 µg/mL
same,% R (resistance),"K. pneumoniae ESBL−; Europe, Eucast breakpoints",2.2%
same,MIC90,"K. pneumoniae ESBL−; Europe, N=361",≤ 1 µg/mL
same,% R (resistance),"K. pneumoniae ESBL−; L. Amer, CLSI breakpoints",1.3%
same,MIC90,"K. pneumoniae ESBL−; L. Amer, N=160",≤ 1 µg/mL
same,% R (resistance),"K. pneumoniae ESBL−; N America, CLSI breakpoints",1.2%
same,MIC90,"K. pneumoniae ESBL−; N America, N=671",≤ 1 µg/mL
same,% R (resistance),"K. pneumoniae ESBL+; Asia/Pac, Eucast breakpoints",58.1%
same,MIC90,"K. pneumoniae ESBL+; Asia/Pac, N=124",> 8 µg/mL
same,% R (resistance),"K. pneumoniae ESBL+; Europe, Eucast breakpoints",58.3%
same,MIC90,"K. pneumoniae ESBL+; Europe, N=151",> 8 µg/mL
same,% R (resistance),"K. pneumoniae ESBL+; L. Amer, CLSI breakpoints",56.9%
same,MIC90,"K. pneumoniae ESBL+; L. Amer, N=209",> 8 µg/mL
same,% R (resistance),"K. pneumoniae ESBL+; N America, CLSI breakpoints",46.3%
same,MIC90,"K. pneumoniae ESBL+; N America, N=108",> 8 µg/mL
same,% R (resistance),"Enterobacter spp; Asia/Pac, Eucast breakpoints",7.7%
same,MIC90,"Enterobacter spp; Asia/Pac, N=52",≤ 1 µg/mL
same,% R (resistance),"Enterobacter spp; Europe, Eucast breakpoints",4.9%
same,MIC90,"Enterobacter spp; Europe, N=82",≤ 1 µg/mL
same,% R (resistance),"Enterobacter spp; L. Amer, CLSI breakpoints",9.5%
same,MIC90,"Enterobacter spp; L. Amer, N=42",2 µg/mL
same,MIC90,"Enterobacter spp; N America, N=101",≤1 (1)
same,% R (resistance),"MS CoNS; Asia/Pac, Eucast breakpoints",33.3%
same,MIC90,"MS CoNS; Asia/Pac, N=18",4 µg/mL
same,% R (resistance),"MS CoNS; Europe, Eucast breakpoints",9.7%
same,MIC90,"MS CoNS; Europe, N=185",≤ 1 µg/mL
same,% R (resistance),"MS CoNS; L. Amer, CLSI breakpoints",7.5%
same,MIC90,"MS CoNS; L. Amer, N=67",8 µg/mL
same,% R (resistance),"MS CoNS; N America, CLSI breakpoints",2.1%
same,MIC90,"MS CoNS; N America, N=191",≤ 1 µg/mL
same,% R (resistance),"K. oxytoca; Asia/Pac, Eucast breakpoints",17.6%
same,MIC90,"K. oxytoca; Asia/Pac, N=17",> 8 µg/mL
same,% R (resistance),"K. oxytoca; Europe, Eucast breakpoints",8.2%
same,MIC90,"K. oxytoca; Europe, N=158",≤ 1 µg/mL
same,% R (resistance),"K. oxytoca; L. Amer, CLSI breakpoints",12%
same,MIC90,"K. oxytoca; L. Amer, N=25",> 8 µg/mL
same,% R (resistance),"K. oxytoca; N America, CLSI breakpoints",2.3%
same,MIC90,"K. oxytoca; N America, N=177",≤ 1 µg/mL
same,% R (resistance),"E. coli ESBL−; Asia/Pac, Eucast breakpoints",16.3%
same,MIC90,"E. coli ESBL−; Asia/Pac, N=282",> 8 µg/mL
same,% R (resistance),"E. coli ESBL−; Europe, Eucast breakpoints",7.4%
same,MIC90,"E. coli ESBL−; Europe, N=1533",2 µg/mL
same,% R (resistance),"E. coli ESBL−; L. Amer, CLSI breakpoints",9%
same,MIC90,"E. coli ESBL−; L. Amer, N=389",2 µg/mL
same,% R (resistance),"E. coli ESBL−; N America, CLSI breakpoints",7.7%
same,MIC90,"E. coli ESBL−; N America, N=1172",2 µg/mL
same,% R (resistance),"MR CoNS; Asia/Pac, Eucast breakpoints",72.7%
same,MIC90,"MR CoNS; Asia/Pac, N=77",> 8 µg/mL
same,% R (resistance),"MR CoNS; Europe, Eucast breakpoints",56.2%
same,MIC90,"MR CoNS; Europe, N=510",> 8 µg/mL
same,% R (resistance),"MR CoNS; L. Amer, CLSI breakpoints",33.2%
same,MIC90,"MR CoNS; L. Amer, N=301",> 8 µg/mL
same,% R (resistance),"MR CoNS; N America, CLSI breakpoints",22.6%
same,MIC90,"MR CoNS; N America, N=461",> 8 µg/mL
same,% R (resistance),"A. baumanii; Asia/Pac, Eucast breakpoints",80%
same,MIC90,"A. baumanii; Asia/Pac, N=275",> 8 µg/mL
same,% R (resistance),"A. baumanii; Europe, Eucast breakpoints",61.4%
same,MIC90,"A. baumanii; Europe, N=145",> 8 µg/mL
same,% R (resistance),"A. baumanii; L. Amer, CLSI breakpoints",52.4%
same,MIC90,"A. baumanii; L. Amer, N=275",> 8 µg/mL
same,% R (resistance),"A. baumanii; N America, CLSI breakpoints",57.8%
same,MIC90,"A. baumanii; N America, N=154",> 8 µg/mL
same,% R (resistance),"Acinetobacter spp; Asia/Pac, Eucast breakpoints",33.3%
same,% R (resistance),"Acinetobacter spp; Europe, Eucast breakpoints",32.6%
same,MIC90,"Acinetobacter spp; Europe, N=43",> 8 µg/mL
same,% R (resistance),"Acinetobacter spp; L. Amer, CLSI breakpoints",22.2%
same,% R (resistance),"Acinetobacter spp; N America, CLSI breakpoints",14.3%
same,MIC90,"Acinetobacter spp; N America, N=42",> 8 µg/mL
same,% R (resistance),"MSSA; Asia/Pac, Eucast breakpoints",8.4%
same,MIC90,"MSSA; Asia/Pac, N=641",≤ 1 µg/mL
same,% R (resistance),"MSSA; Europe, Eucast breakpoints",2.7%
same,MIC90,"MSSA; Europe, N=2109",≤ 1 µg/mL
same,% R (resistance),"MSSA; L. Amer, CLSI breakpoints",1.9%
same,MIC90,"MSSA; L. Amer, N=590",≤ 1 µg/mL
same,% R (resistance),"MSSA; N America, CLSI breakpoints",0.7%
same,MIC90,"MSSA; N America, N=2373",≤ 1 µg/mL
same,% R (resistance),"E. coli ESBL+; Asia/Pac, Eucast breakpoints",58.9%
same,MIC90,"E. coli ESBL+; Asia/Pac, N=219",> 8 µg/mL
same,% R (resistance),"E. coli ESBL+; Europe, Eucast breakpoints",40.5%
same,MIC90,"E. coli ESBL+; Europe, N=274",> 8 µg/mL
same,% R (resistance),"E. coli ESBL+; L. Amer, CLSI breakpoints",39.3%
same,MIC90,"E. coli ESBL+; L. Amer, N=168",> 8 µg/mL
same,% R (resistance),"E. coli ESBL+; N America, CLSI breakpoints",26.1%
same,MIC90,"E. coli ESBL+; N America, N=134",> 8 µg/mL
same,% R (resistance),"E. cloacae CeftazR; Asia/Pac, Eucast breakpoints",39.7%
same,MIC90,"E. cloacae CeftazR; Asia/Pac, N=63",> 8 µg/mL
same,% R (resistance),"E. cloacae CeftazR; Europe, Eucast breakpoints",43.1%
same,MIC90,"E. cloacae CeftazR; Europe, N=72",> 8 µg/mL
same,% R (resistance),"E. cloacae CeftazR; L. Amer, CLSI breakpoints",38.1%
same,MIC90,"E. cloacae CeftazR; L. Amer, N=42",> 8 µg/mL
same,% R (resistance),"E. cloacae CeftazR; N America, CLSI breakpoints",20.8%
same,MIC90,"E. cloacae CeftazR; N America, N=77",> 8 µg/mL
